Holding throughout (format): binding
Test [1] has as its target T1, human HER2 (23-652) (Homo sapiens, UniProt P04626). Briefly: TR-FRET competition assay for peptide potency, human HER2. More on the design: towards human HER2 (23-652) and mouse HER2 (23-653); made in house; host or cells: mammalian cells. Conditions: read-out: huHER2 TR-FRET IC50. For orientation: Time-resolved FRET reads energy transfer from a long-lived donor to a nearby acceptor.

In test [2] the target is T1, human HER2 (23-652). Briefly: Surface plasmon resonance (SPR) for assessment of peptide affinity, human HER2. More on the design: towards human HER2 (23-652) and mouse HER2 (23-653); made in house. The settings on record: SPR, human HER2 extracellular domain, 25° C., 1:1 binding model; for Kd: read-out: huHER2-SPR-ONC KD. The method, boiled down:
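Binding kinetics fitted from sensorgrams with 280 s peptide association then 3000 s dissociation (30 uL/min), using HER2 (23-652) either directly immobilized (SA/CM5) or anti-Fc-captured; 3 M magnesium chloride used for regeneration.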

Test [3] addresses T2, mouse HER2 (23-653) (Mus musculus, UniProt P70424). In words: TR-FRET competition assay for peptide potency, mouse HER2. Set-up: mouse HER2 (23-653) using a Cy5 labeled peptide as a probe; made in house; host or cells: mammalian cells. The settings on record: TR-FRET competition with Cy5 labeled peptide probe, 0.1 nM mouse HER2, 24 h incubation; read-out: moHER2 TR-FRET IC50.

The target in test [4] is T2, mouse HER2 (23-653). Briefly: Surface plasmon resonance (SPR) for assessment of peptide affinity, mouse HER2. Conditions: SPR, mouse HER2 extracellular domain, 25° C., 1:1 binding model; for Kd: read-out: moHER2-SPR-ONC KD. More on the design: mouse HER2 (23-653) using a Cy5 labeled peptide as a probe; made in house. An excerpt: Each protein was immobilized either onto a SA sensorchip (Cytiva, BR-1005-31) or CM5 sensorchip (Cytiva, BR-1005-30) to a density of 800-2000 RU.
(Surface plasmon resonance follows binding to a sensor surface in real time, without labels.)

Positions of bridges follow the written chain, without caps; N, C: chain ends. Non-standard residues stand in square brackets, D forms with d. Residues, ends and D or L forms follow the SMILES beside them. Trp(5-OH) = N[C@@H](Cc1c[nH]c2ccc(O)cc12)C(=O)O; NMePhe(4-F) = CN[C@@H](Cc1ccc(F)cc1)C(=O)O; NMehPhe = CN[C@@H](CCc1ccccc1)C(=O)O; NMeAoc(2) = CCCCCC[C@H](NC)C(=O)O; NMeAhp(2) = CCCCC[C@H](NC)C(=O)O; NMeE = CN[C@@H](CCC(=O)O)C(=O)O; Aad = N[C@@H](CCCC(=O)O)C(=O)O; Gly(cPr) = N[C@H](C(=O)O)C1CC1; Aoc(2) = CCCCCC[C@H](N)C(=O)O; Ahp(2) = CCCCC[C@H](N)C(=O)O; NMeK = CN[C@@H](CCCCN)C(=O)O; NMeDap = CN[C@@H](CN)C(=O)O; NMeS = CN[C@@H](CO)C(=O)O; Dap = NC[C@H](N)C(=O)O

Usually IC50 stands for the concentration that inhibits the measured activity by half. What is called Kd is the constant that tells how readily two partners part at equilibrium. With `CC(=O)N[C@H]1CCC(=O)NC[C@@H](C(=O)N(C)[C@@H](Cc2ccc(F)cc2)C(N)=O)NC(=O)[C@H](C2CC2)NC(=O)[C@H](Cc2c[nH]c3ccccc23)NC(=O)[C@H](Cc2c[nH]c3ccc(O)cc23)NC(=O)[C@H](CO)N(C)C(=O)[C@H](CCc2ccccc2)N(C)C(=O)[C@H](CO)NC(=O)[C@H](Cc2ccc(O)cc2)NC1=O` [Example A12, (3S,6S,9S,12S,15S,18S,21S,24S,27S)-9-((1H-indol-3-yl)methyl)-27-acetamido-N-((S)-1-amino-3-(4-fluorophenyl)-1-oxopropan-2-yl)-6-cyclopropyl-12-((5-hydroxy-1H-indol-3-yl)methyl)-24-(4-hydroxybenzyl)-15,21-bis(hydroxymethyl)-N,16,19-trimethyl-5,8,11,14,17,20,23,26,30-nonaoxo-18-phenethyl-1,4,7,10,13,16,19,22,25-nonaazacyclotriacontane-3-carboxamide], the half-maximal inhibitory concentration (IC50) at human HER2 (23-652) [1] and at mouse HER2 (23-653) [3] was over 1000 nM in each case. Besides, the figures for the Kd on human HER2 (23-652) [2] and at mouse HER2 (23-653) [4] were 1340 nM and 864 nM, respectively.
Consider `CCCCCC[C@@H](C(N)=O)N(C)C(=O)[C@@H]1CNC(=O)CCC[C@H](NC(C)=O)C(=O)N[C@@H](Cc2ccc(O)cc2)C(=O)N[C@@H](CO)C(=O)N(C)[C@@H](CCc2ccccc2)C(=O)N(C)[C@@H](CCCCNC(C)=O)C(=O)N[C@@H](Cc2c[nH]c3ccc(O)cc23)C(=O)N[C@@H](Cc2c[nH]c3ccccc23)C(=O)N[C@@H](C2CC2)C(=O)N1C` [Example A13, (3S,6S,9S,12S,15S,18S,21S,24S,27S)-9-((1H-indol-3-yl)methyl)-27-acetamido-15-(4-acetamidobutyl)-N-((S)-1-amino-1-oxooctan-2-yl)-6-cyclopropyl-12-((5-hydroxy-1H-indol-3-yl)methyl)-24-(4-hydroxybenzyl)-21-(hydroxymethyl)-N,4,16,19-tetramethyl-5,8,11,14,17,20,23,26,31-nonaoxo-18-phenethyl-1,4,7,10,13,16,19,22,25-nonaazacyclohentriacontane-3-carboxamide] (Ac-[Aad]YS[NMehPhe][NMeK](Ac)[Trp(5-OH)]W[Gly(cPr)][NMeDap][NMeAoc(2)]-NH2; lactam 1-9), for which the 50% inhibitory concentration (IC50) amounted to 46 nM on human HER2 (23-652) [1] and 107 nM at mouse HER2 (23-653) [3]. Besides, the dissociation constant Kd on human HER2 (23-652) [2] turned out to be 40 nM; at mouse HER2 (23-653) [4], 44 nM.
Turning to `CCCCC[C@@H](C(N)=O)N(C)C(=O)[C@@H]1CNC(=O)CCC[C@H](NC(C)=O)C(=O)N[C@@H](Cc2ccc(O)cc2)C(=O)N[C@@H](CO)C(=O)N(C)[C@@H](CCc2ccccc2)C(=O)N(C)[C@@H](CCCCNC(C)=O)C(=O)N[C@@H](Cc2c[nH]c3ccc(O)cc23)C(=O)N[C@@H](Cc2c[nH]c3ccccc23)C(=O)N[C@@H](C2CC2)C(=O)N1C` [Example A15, (3S,6S,9S,12S,15S,18S,21S,24S,27S)-9-((1H-indol-3-yl)methyl)-27-acetamido-15-(4-acetamidobutyl)-N-((S)-1-amino-1-oxoheptan-2-yl)-6-cyclopropyl-12-((5-hydroxy-1H-indol-3-yl)methyl)-24-(4-hydroxybenzyl)-21-(hydroxymethyl)-N,4,16,19-tetramethyl-5,8,11,14,17,20,23,26,31-nonaoxo-18-phenethyl-1,4,7,10,13,16,19,22,25-nonaazacyclohentriacontane-3-carboxamide] (Ac-[Aad]YS[NMehPhe][NMeK](Ac)[Trp(5-OH)]W[Gly(cPr)][NMeDap][NMeAhp(2)]-NH2; lactam 1-9), the values for the half-inhibitory concentration (IC50) at human HER2 (23-652) [1] and on mouse HER2 (23-653) [3] were 27 nM and 55 nM, respectively. In addition, the equilibrium dissociation constant (Kd) on human HER2 (23-652) [2] and at mouse HER2 (23-653) [4] was 24 nM throughout.
Consider `CC(=O)N[C@H]1CCC(=O)NC[C@@H](C(=O)N(C)[C@@H](Cc2ccc(F)cc2)C(N)=O)N(C)C(=O)[C@H](C2CC2)NC(=O)[C@H](Cc2c[nH]c3ccccc23)NC(=O)[C@H](Cc2cnn3ccccc23)NC(=O)[C@H](CO)N(C)C(=O)[C@H](CCc2ccccc2)N(C)C(=O)[C@H](CO)NC(=O)[C@H](Cc2ccc(O)cc2)NC1=O` [Example A16, (3S,6S,9S,12S,15S,18S,21S,24S,27S)-9-((1H-indol-3-yl)methyl)-27-acetamido-N-((S)-1-amino-3-(4-fluorophenyl)-1-oxopropan-2-yl)-6-cyclopropyl-24-(4-hydroxybenzyl)-15,21-bis(hydroxymethyl)-N,4,16,19-tetramethyl-5,8,11,14,17,20,23,26,30-nonaoxo-18-phenethyl-12-(pyrazolo[1,5-a]pyridin-3-ylmethyl)-1,4,7,10,13,16,19,22,25-nonaazacyclotriacontane-3-carboxamide], for which the half-maximal inhibitory concentration (IC50) on human HER2 (23-652) [1] and at mouse HER2 (23-653) [3] was over 1000 nM in each case. Also, the dissociation constant Kd on human HER2 (23-652) [2] and at mouse HER2 (23-653) [4] was over 6000 nM each time.
For `CCCCC[C@@H]1NC(=O)[C@H](Cc2c[nH]c3ccc(O)cc23)NC(=O)[C@H](CCCCNC(C)=O)N(C)C(=O)[C@H](CCc2ccccc2)N(C)C(=O)[C@H](CO)NC(=O)[C@H](Cc2ccc(O)cc2)NC(=O)[C@@H](NC(C)=O)CCCC(=O)NC[C@@H](C(=O)N(C)[C@@H](Cc2ccc(F)cc2)C(N)=O)N(C)C(=O)[C@H](C2CC2)NC1=O` [Example A17, (3S,6S,9S,12S,15S,18S,21S,24S,27S)-27-acetamido-15-(4-acetamidobutyl)-N-((S)-1-amino-3-(4-fluorophenyl)-1-oxopropan-2-yl)-6-cyclopropyl-12-((5-hydroxy-1H-indol-3-yl)methyl)-24-(4-hydroxybenzyl)-21-(hydroxymethyl)-N,4,16,19-tetramethyl-5,8,11,14,17,20,23,26,31-nonaoxo-9-pentyl-18-phenethyl-1,4,7,10,13,16,19,22,25-nonaazacyclohentriacontane-3-carboxamide] (Ac-[Aad]YS[NMehPhe][NMeK](Ac)[Trp(5-OH)][Ahp(2)][Gly(cPr)][NMeDap][NMePhe(4-F)]-NH2; lactam 1-9), the IC50 at human HER2 (23-652) [1] and on mouse HER2 (23-653) [3] was over 1000 nM throughout. The Kd at human HER2 (23-652) [2] and at mouse HER2 (23-653) [4] was over 6000 nM throughout.
In the case of `CCCCCC[C@@H]1NC(=O)[C@H](Cc2c[nH]c3ccc(O)cc23)NC(=O)[C@H](CCCCNC(C)=O)N(C)C(=O)[C@H](CCc2ccccc2)N(C)C(=O)[C@H](CO)NC(=O)[C@H](Cc2ccc(O)cc2)NC(=O)[C@@H](NC(C)=O)CCCC(=O)NC[C@@H](C(=O)N(C)[C@@H](Cc2ccc(F)cc2)C(N)=O)N(C)C(=O)[C@H](C2CC2)NC1=O` [Example A18, (3S,6S,9S,12S,15S,18S,21S,24S,27S)-27-acetamido-15-(4-acetamidobutyl)-N-((S)-1-amino-3-(4-fluorophenyl)-1-oxopropan-2-yl)-6-cyclopropyl-9-hexyl-12-((5-hydroxy-1H-indol-3-yl)methyl)-24-(4-hydroxybenzyl)-21-(hydroxymethyl)-N,4,16,19-tetramethyl-5,8,11,14,17,20,23,26,31-nonaoxo-18-phenethyl-1,4,7,10,13,16,19,22,25-nonaazacyclohentriacontane-3-carboxamide] (Ac-[Aad]YS[NMehPhe][NMeK](Ac)[Trp(5-OH)][Aoc(2)][Gly(cPr)][NMeDap][NMePhe(4-F)]-NH2; lactam 1-9), the IC50 at human HER2 (23-652) [1] and on mouse HER2 (23-653) [3] was over 1000 nM in each case. Besides, the Kd at human HER2 (23-652) [2] and at mouse HER2 (23-653) [4] was over 6000 nM each time.
As to `CC(=O)N[C@H]1CNC(=O)CC[C@@H](C(=O)N(C)[C@@H](Cc2ccc(F)cc2)C(N)=O)N(C)C(=O)[C@H](C2CC2)NC(=O)[C@H](Cc2c[nH]c3ccccc23)NC(=O)[C@H](Cc2c[nH]c3ccc(O)cc23)NC(=O)[C@H](CO)N(C)C(=O)[C@H](CCc2ccccc2)N(C)C(=O)[C@H](CO)NC(=O)[C@H](Cc2ccc(O)cc2)NC1=O` [Example A19, (3S,6S,9S,12S,15S,18S,21S,24S,30S)-6-((1H-indol-3-yl)methyl)-24-acetamido-N-((S)-1-amino-3-(4-fluorophenyl)-1-oxopropan-2-yl)-3-cyclopropyl-9-((5-hydroxy-1H-indol-3-yl)methyl)-21-(4-hydroxybenzyl)-12,18-bis(hydroxymethyl)-N,1,13,16-tetramethyl-2,5,8,11,14,17,20,23,27-nonaoxo-15-phenethyl-1,4,7,10,13,16,19,22,26-nonaazacyclotriacontane-30-carboxamide] (Ac-[Dap]YS[NMehPhe][NMeS][Trp(5-OH)]W[Gly(cPr)][NMeE][NMePhe(4-F)]-NH2; lactam 1-9), the IC50 on human HER2 (23-652) [1] and at mouse HER2 (23-653) [3] was over 1000 nM throughout. In addition, the “huHER2-SPR-ONC KD” value at human HER2 (23-652) [2] was “no binding*”. In addition, the “moHER2-SPR-ONC KD” value at mouse HER2 (23-653) [4] is recorded as “no binding*”.

Values taken from patent US20250332300A1 (priority 2024, published 2025).
